Converted amounts (≈) assume the structure as drawn. “Also recorded” adds a separate entry of the source. Where two headings read alike, the source gives them in different places.
Legend:
CDK5, CDK2, CDK1, CDK4 = settings: cited from earlier work
G93A-SOD1 expression = assay: SOD1 protein expression in cultured fibroblasts from G93A-SOD1 mice (ELISA); assay type: cell-based, mouse; settings: for Effect on SOD1 expression (in words) / Shape of dose-response curve for SOD1 expression / IC50: G93A-SOD1 mouse fibroblasts; for activity at 10 µM: Mus musculus, 48 h, 10 μM compound
Method: Fibroblasts were treated with the title compounds at the indicated concentration for 48 hr. Cells were washed, lysed, and SOD1 levels measured by ELISA. SOD1 levels are normalized to the total protein in the lysate.
Thus, we used cultured fibroblasts from the G93A-SOD1 transgenic mouse to screen GSK3β protein kinase inhibitors (FIG. 1) for their effects on SOD1 expression. The transgene construct contains the human SOD1 promoter so that cellular signaling processes that affect transcription of the gene will be fully functional. We chose a structurally diverse group of compounds including some natural products.

SOD1 = SOD1 protein in CNS tissues of treated G93A-SOD1 mice (ELISA); assay type: in vivo, mouse; settings: 20 mg/kg IP every other day for 26 days
Method: FIG. 7. Inhibition of SOD1 protein expression in the G93A-SOD1 mouse. GSK3B-I treatment was at 20 mg/kg IP every other day for 26 days. Mice were sacrificed and SOD1 measured in the indicated tissues. […] Error bars are SEM.
Initial testing was carried out in a small cohort (5-6 animals) of G93A-SOD1 mice (high level of mutant SOD1 expression). The drug was dosed at 20 mg/kg IP every other day for 26 days. Mice were sacrificed and SOD1 was measured by ELISA.

[1] = Distribution in tissues of nontransgenic mice after injection; assay type: in vivo, mouse; settings: for Concentration (μM), Brain / Concentration (μM), Serum / Concentration (μM), Spinal cord: n = 2; for CNS distribution and persistence (in words): nontransgenic mice; for concentration at 2 h / concentration at 4 h / concentration at 24 h: mouse, other: injection, 10 mg/kg injection
Method: The blood brain barrier permeability of GSK3B-II was determined in nontransgenic mice. […] The peak and sustained concentrations found in the spinal cord and brain indicate that the 20 mg/kg dose puts the drug into the inhibitory range found in the cellular assays.
(§1) We also tested compound NUCC-434 for distribution in non-transgenic mice. […] While there are a multitude of methods for improving aqueous solubility of drugs (32) we chose a relatively simple route using a cyclodextrin based carrier (Sulfo-butylether beta-cyclodextrin, Captisol) to solubilize the drug in aqueous solution. Using the cyclodextrin carrier, we were able to solubilize NUCC-434 to 2 mg/mL in water and deliver 10 mg/kg to nontransgenic mice for pharmacokinetics. […] However, the distribution dynamics are different in the presence of the cyclodextrin which appears to slow uptake into the CNS as the peak drug concentration was delayed (Table 4). Such changes in distribution dynamics using cyclodextrins have not been studied in detail.

SOD1 mRNA = SOD1 mRNA in G93A-SOD1 mouse fibroblasts; assay type: cell-based
Source text: FIG. 3. […] A. Dose-dependent changes in G93A-SOD1 protein expression and B. SOD1 mRNA (n=3). Data are normalized to GAPDH activity (protein) or mRNA. Error bars are SEM.

SOD1 expression = SOD1 expression in G93A-SOD1 transgenic mouse motor neurons; assay type: cell-based
Source text: The compound decreases SOD1 expression in vitro in assays done in mouse fibroblasts (FIG. 3) and mouse motor neurons (FIG. 7).
The mechanism of inhibition is largely due to a decrease in the G93A-SOD1 mRNA. The transgene expressed in the mouse uses the native human promoter. Thus, therapy with these drugs in human subjects would also lead to a decrease in SOD1 mRNA in all tissues.

GSK3β = GSK3β (Homo sapiens, UniProt P49841); settings: published values; cited from earlier work
cell toxicity [2] = assay: Cell toxicity; assay type: cell-based
[3] = Solubility in dosing vehicle; assay type: physicochemical
Method: as §1

cell toxicity [4] = settings: cited from earlier work
[5] = 20 mg/kg intraperitoneal, 24 hr
[6] = Fibroblast, Table 2, relative to control, read-out: Relative SOD1 expression 10 μM compound
[7] = Fibroblast, Table 5, read-out: Relative SOD1 Expression in Presence of Compound (10 μM)
[8] = brain, cyclodextrin carrier, read-out: Brain
[9] = serum, cyclodextrin carrier, read-out: Serum
[10] = spinal cord, cyclodextrin carrier, read-out: Spinal Cord

Chain of GSK3β (P49841 whole entry, species assumed): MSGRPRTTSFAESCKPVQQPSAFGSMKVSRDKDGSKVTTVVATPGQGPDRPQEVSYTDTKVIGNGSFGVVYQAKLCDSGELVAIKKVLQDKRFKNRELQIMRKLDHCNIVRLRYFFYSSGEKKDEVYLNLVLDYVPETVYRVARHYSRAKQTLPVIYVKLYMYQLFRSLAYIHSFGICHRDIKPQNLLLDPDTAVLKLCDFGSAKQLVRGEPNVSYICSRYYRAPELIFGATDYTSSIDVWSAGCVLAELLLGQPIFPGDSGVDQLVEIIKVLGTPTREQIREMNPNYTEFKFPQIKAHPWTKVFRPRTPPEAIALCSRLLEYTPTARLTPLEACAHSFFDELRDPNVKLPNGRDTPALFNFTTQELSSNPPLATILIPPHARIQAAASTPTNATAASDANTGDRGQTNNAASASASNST

Structure (SMILES) | Effect on SOD1 expression (in words) (G93A-SOD1 expression) | activity at 10 µM (G93A-SOD1 expression; [6]) | activity at 10 µM (G93A-SOD1 expression; [7]) | other results
CCCCc1c(-c2ccc(O)cc2)[nH]c2nccnc12 [Aloisine, Aloisine A, reference compound] | increased SOD1 expression | – | – | Comments: other kinases inhibited (CDK5, CDK2, CDK1, CDK4): Also inhibits CDK5,; Effect on SOD1 expression (in words) (G93A-SOD1 expression; 48 hr treatment): Increases SOD1
Ic1cccc(CSc2nnc(-c3ccncc3)o2)c1 [GSK3B-II, reference compound] | most potent at inhibiting G93A-SOD1 expression; also recorded: dose dependent reduction of SOD1 expression in vitro | – | – | Change of SOD1 protein in spinal cord, cerebellum, brain stem, cerebral cortex (SOD1): significant decreases in SOD1 were measured; also recorded: SOD1 protein is reduced; Change of SOD1 protein in spinal cord, cerebellum, brain stem, cerebral cortex (SOD1; listed as GSK3B-I): change in expression was significant; Concentration (μM), Brain ([1]; 20 mg/kg intraperitoneal, 1 hr): 0.944 µM; Concentration (μM), Serum ([1]; 20 mg/kg intraperitoneal, 1 hr): 0.672 µM; Concentration (μM), Spinal cord ([1]; 20 mg/kg intraperitoneal, 1 hr): 4.00 µM; Concentration (μM), Brain [1, 5]: 0.077 µM; Concentration (μM), Serum [1, 5]: 0.073 µM; Concentration (μM), Spinal cord [1, 5]: 0.855 µM; CNS distribution and persistence (in words) ([1]; 20 mg/kg intraperitoneal): rapidly distributes into the brain and spinal cord; also recorded: still detectable after 24 hrs in the brain and spinal cord; Effect on SOD1 mRNA (SOD1 mRNA): reducing the level of SOD1 mRNA; Effect on SOD1 expression in motor neurons (SOD1 expression): inhibits SOD1 expression; Shape of dose-response curve for SOD1 expression (G93A-SOD1 expression): biphasic dose-response curve; IC50 (G93A-SOD1 expression; 48 hr treatment): 625 nM
O=C1Nc2cc(Br)ccc2/C1=C1/Nc2ccccc2/C1=N\O [GSK3B-IX, reference compound] | increased SOD1 expression | – | – | –
O=C(CCl)c1cc(Br)c(Br)s1 [GSK3B-VI, reference compound] | inhibits SOD1 expression | – | – | IC50 (GSK3β): 1000 nM; Concentration at which cell toxicity is exhibited (cell toxicity [2]): greater than 5 μM; IC50 (G93A-SOD1 expression; 48 hr treatment): 650 nM
O=C1Cc2c([nH]c3ccc(Br)cc23)-c2ccccc2N1 [Kenpaullone, reference compound] | only weakly decreased SOD1 expression | – | – | Comments: other kinases inhibited (CDK5, CDK2, CDK1, CDK4): Also inhibits CDK5,; IC50 (G93A-SOD1 expression; Fibroblast, 48 hr treatment): 10000 nM
Brc1cccc(CSc2nnc(-c3ccncc3)o2)c1 [NUCC-318] | – | 91% | 90.3% | –
Fc1cccc(CSc2nnc(-c3ccncc3)o2)c1 [NUCC-319] | significant increase in SOD1 expression | 143% | 144% | –
Brc1ccc(CSc2nnc(-c3ccncc3)o2)cc1 [NUCC-320] | no effect on SOD1 expression | 103% | 103% | –
Ic1ccc(CSc2nnc(-c3ccncc3)o2)cc1 [NUCC-321] | – | 69% | 70.2% | –
Brc1ccc(CSc2nnc(-c3cccnc3)o2)cc1 [NUCC-322] | – | – | 68.6% | SOD1 expression, % of control (G93A-SOD1 expression; 10 μM): 68.6 % of control
Cn1c(SCc2ccc(Br)cc2)nnc1-c1ccncc1 [NUCC-0000323] | – | – | 103% | –
Fc1ccc(CSc2nnc(-c3ccncc3)o2)cc1 [NUCC-324] | – | 86% | 86.3% | –
CSc1nnc(-c2ccncc2-c2ccc(F)cc2)o1 [NUCC-0000404] | – | – | 94.9% | –
Cc1cc(-c2nnc(SCc3ccc(F)cc3)o2)ccn1 [NUCC-0000405] | – | – | 95% | –
O=c1c(C2=NC3C=CC=CC3N2)coc2ccc(Cl)cc12 (centres unmarked) [NUCC-0000406] | – | – | 89.9% | –
N#Cc1ccc(-c2ccc(CSc3nnc(-c4ccc5c(c4)OCO5)o3)cc2)cc1 [NUCC-0000418] | – | – | 114% | –
O=[N+]([O-])c1ccccc1CSc1nnc(-c2ccncc2)o1 [NUCC-0000430] | – | – | 101% | –

Structure (SMILES) | Effect on SOD1 expression (in words) (G93A-SOD1 expression) | activity at 10 µM (G93A-SOD1 expression; [6]) | activity at 10 µM (G93A-SOD1 expression; [7]) | other results
O=[N+]([O-])c1ccc(CSc2nnc(-c3ccncc3)o2)cc1 [NUCC-431] | – | 102% | 102% | –
O=[N+]([O-])c1cccc(CSc2nnc(-c3ccncc3)o2)c1 [NUCC-432] | tended to cause an increase in SOD1 expression | 117% | 117% | –
COc1cccc(CSc2nnc(-c3ccncc3)o2)c1 [NUCC-433] | dose dependent reduction of SOD1 expression in vitro | 50% | 49.9% | Shape of dose-response curve for SOD1 expression (G93A-SOD1 expression): flattened rather than upward curvature at higher concentration
COc1ccc(CSc2nnc(-c3ccncc3)o2)cc1 [NUCC-434] | dose dependent reduction of SOD1 expression in vitro | 47% | 47.4% | CNS distribution and persistence (in words) ([1]; 10 mg/kg, cyclodextrin carrier): entered the CNS and persisted for 24 hr in the spinal cord; concentration at 2 h [1, 8]: 29 nM; concentration at 4 h [1, 8]: 47 nM; concentration at 2 h [1, 9]: 153 nM; concentration at 4 h [1, 9]: 334 nM; concentration at 24 h ([1]; serum, cyclodextrin carrier, 24 hr, read-out: Serum): 123 nM; concentration at 2 h [1, 10]: 57 nM; concentration at 4 h [1, 10]: 162 nM; concentration at 24 h ([1]; spinal cord, cyclodextrin carrier, 24 hr, read-out: Spinal Cord): 113 nM; Solubility in standard 1-2% DMSO vehicle ([3]; 1-2% DMSO vehicle): poor; solubility ([3]; aqueous with cosolvent or surfactant or cyclodextrin, Sulfo-butylether beta-cyclodextrin (Captisol) in water, read-out: Solubility in water with cyclodextrin carrier): 2000 µg/mL (≈ 6.68 mM); Shape of dose-response curve for SOD1 expression (G93A-SOD1 expression): flattened rather than upward curvature at higher concentration
FC(F)(F)c1ccc(CSc2nnc(-c3ccncc3)o2)cc1 [NUCC-435] | significant increase in SOD1 expression | 157% | 158% | –
Cc1ccc(CSc2nnc(-c3ccncc3)o2)cc1 [NUCC-436] | – | 126% | 126% | –
c1cc(CSc2nnc(-c3ccncc3)o2)ccn1 [NUCC-437] | not significantly different from control | – | 90.3% | –
c1cncc(CSc2nnc(-c3ccncc3)o2)c1 [NUCC-438] | not significantly different from control | – | 112% | –
Clc1cccc(CSc2nnc(-c3ccncc3)o2)c1 [NUCC-439] | – | 96% | 95.9% | –
Clc1ccc(CSc2nnc(-c3ccncc3)o2)cc1 [NUCC-440] | tended to cause an increase in SOD1 expression | 123% | 123% | –
c1ccc(CSc2nnc(-c3ccncc3)o2)cc1 [NUCC-441] | activates expression of SOD1 | 133% | 133% | –
CSc1nnc(-c2ccnc(Nc3ccccc3)c2)o1 [NUCC-0000471] | – | – | 106% | –
CSc1nnc(-c2ccnc(NCc3ccccc3)c2)o1 [NUCC-0000472] | – | – | 146% | –
CSc1nnc(-c2ccnc(NC3CCOCC3)c2)o1 [NUCC-0000473] | – | – | 127% | –
Cn1cc(C2=C(c3ccc(Cl)cc3Cl)C(=O)NC2=O)c2ccccc21 [SB216763, reference compound] | not more effective at decreasing SOD1 expression in vitro | – | – | IC50 (G93A-SOD1 expression; Fibroblast, 48 hr treatment): 3000 nM
CCc1nc(N)nc(N)c1-c1ccc(Cl)cc1 [pyrimethamine] | – | – | – | Cell toxicity in vitro (cell toxicity [4]): cell toxicity in the effective dose range

Reference: patent US9669014B2, “Small molecule inhibitors of superoxide dismutase expression” (Northwestern University, priority 2014, dated 2017)
